# System: Bmi-1 protein
# Experiment: Sandwich ELISA Assay (Bmi-1 protein level in HT-1080 cells)
# Format: cell-based
# Procedure: Cell Seeding and Compound Treatment (Day 1):
# HT-1080 cells were seeded at 8000 cells/well (50 μL) in 96-well tissue culture plates. After the cells became adherent (3-4 hours), 2× diluted stocks of test compounds in 50 μL DMEM containing 1% DMSO (final DMSO concentration was 0.5%) were added and the plates were incubated at 37° C. under 5% CO2 for 40-48 hours.
# ELISA Plate First Antibody Preparation (Day 2):
# The First Antibody (Millipore Mouse, monoclonal to mouse Bmi-1, clone F6, catalog #05-637) diluted to 2 μg/mL in PBS was added (100 μL) to each well of a Nunc MaxiSorp 96-well ELISA plate. The plate was covered with a plate seal and allowed to stand overnight.
# Cell Lysate Preparation (Day 3):
# Fresh Lysis buffer (1×) was prepared on the day of the assay as follows: 1 mM EDTA, 150 mM NaCl, 0.5% Triton-X 100, 10 mM NaF, 20 mM B-Glycerophosphate, 1 mM DTT (in PBS, pH 7.2-7.4) and HALT protease inhibitor cocktail (1×) (Pierce #78410).
# Lysis Buffer (1×, 40 μL) was added to each well and the plate was shaken for 5-10 minutes on an orbital shaker to allow cell lysis, then diluent (1% BSA in PBS in 0.5% NP40) (100 μL) was added to each well.
# A standard curve was prepared at the following Bmi-1 concentrations: 8000, 4000, 2000, 1000, 500, 250, 125 and 0 pg/mL. The Bmi-1 Recombinant Protein Standard (Novus Biologicals PCGF4 Recombinant Protein (P01), catalog # H00000648-P01) used to prepare the standard curve was stored at −80° C. On first thaw, the Recombinant Protein Standard was diluted to 10 μg/μL in Blocking Buffer (1% BSA in PBS; BSA: Fisher Scientific Catalog #1600-100). Aliquots were taken and refrozen at −80° C. The aliquots may be kept at 4° C. and reused after first thaw, but only within 1-2 weeks. The Recombinant Protein Standard contains a GST-fusion tag that appears at approximately 70 Kda on Western Blot.
# The prepared ELISA plate was washed 3× with Wash Buffer (0.05% Tween-20 in PBS). The final wash was removed from the plate and the plate was blotted dry. Blocking Buffer (300 μL) (1% BSA in PBS) was added to each well. The plate was covered with a plate seal and incubated at room temperature for 1 hour. The blocked plate was washed 3× with Wash Buffer, then the final wash was removed and the plate was blotted dry. The previously prepared samples and standards were added (100 μL/well) and the plate was covered with a plate seal and incubated at 4° C. overnight.
# The prepared ELISA plate was removed from incubation and allowed to stand at room temperature for 30 minutes, then washed and blotted dry. The Second Antibody (Cell Signaling Rabbit anti-Bmi-1, Cat#2830) diluted to 1:600 in Blocking Buffer was added (100 μL) to each well, except as needed for background control wells. The plate was covered with a plate seal and incubated for 1.5 hrs at room temperature.
# The ELISA plate was washed and blotted dry as previously described. The Third Antibody (Cell Signaling HRP conjugated anti-rabbit IgG (CellSignaling, Cat#:7074) diluted to 1:300 in Blocking Buffer was added (100 μL) to each well, except as needed for background control wells. The plate was incubated for 1 hr at room temperature.
# The plate was washed and blotted dry, then a previously prepared TMB substrate (TMB substrate kit, Pierce catalog #34021) (prepared by mixing kit reagents 1:1) (100 μL) was added per well. The plate was incubated for 20-30 minutes at room temperature in the dark, then Stop Solution (2 M sulfuric acid in water) (50 μL) was added per well. The plates were read at OD450 (experimental) and OD570 (reference).
row,EC50,SMILES
1,1 to 10 nM,"Cc1nc2ccc(F)cn2c1-c1cc(N)nc(Nc2ccc(C(F)(F)F)cc2)n1 [Cpd 1, 6-(6-fluoro-2-methylimidazo[1,2-a]pyridin-3-yl)-N^2-[4-(trifluoromethyl)phenyl]pyrimidine-2,4-diamine]"
2,1 to 10 nM,"Cc1nn(C)c(C)c1-c1cc(N)nc(Nc2ccc(C(F)(F)F)cc2)n1 [Cpd 3, N^2-[4-(trifluoromethyl)phenyl]-6-(1,3,5-trimethyl-1H-pyrazol-4-yl)pyrimidine-2,4-diamine]"
3,10 to 100 nM,"Cc1nc2ccc(F)cc2n1-c1cc(N)nc(Nc2ccc(C(F)(F)F)cc2)n1 [Cpd 4, 6-(6-fluoro-2-methyl-1H-benzimidazol-1-yl)-N^2-[4-(trifluoromethyl)phenyl]pyrimidine-2,4-diamine]"
4,100 to 3000 nM,"Cc1nc2ccccc2n1-c1cc(Cl)nc(Nc2ccc(C(F)(F)F)cc2)n1 [Cpd 6, 4-chloro-6-(2-methyl-1H-benzimidazol-1-yl)-N-[4-(trifluoromethyl)phenyl]pyrimidin-2-amine]"
5,10 to 100 nM,"Cc1nc2ccccc2n1-c1cc(N)nc(Nc2ccc(C(F)(F)F)cc2)n1 [Cpd 7, 6-(2-methyl-1H-benzimidazol-1-yl)-N^2-[4-(trifluoromethyl)phenyl]pyrimidine-2,4-diamine]"
6,100 to 3000 nM,"Cc1nc2ccccc2n1-c1cc(Cl)nc(Nc2ccc(C(F)(F)F)c(F)c2)n1 [Cpd 8, 4-chloro-N-[3-fluoro-4-(trifluoromethyl)phenyl]-6-(2-methyl-1H-benzimidazol-1-yl)pyrimidin-2-amine]"
7,1 to 10 nM,"Nc1cc(-c2c(C3CC3)nc3ccc(F)cn23)nc(Nc2ccc(OC(F)F)c(F)c2)n1 [Cpd 9, 6-(2-cyclopropyl-6-fluoroimidazo[1,2-a]pyridin-3-yl)-N^2-[4-(difluoromethoxy)-3-fluorophenyl]pyrimidine-2,4-diamine]"
8,10 to 100 nM,"Cc1nc2ccc(F)cc2n1-c1cc(N)nc(Nc2ccc(OC(F)F)c(F)c2)n1 [Cpd 10, N^2-[4-(difluoromethoxy)-3-fluorophenyl]-6-(6-fluoro-2-methyl-1H-benzimidazol-1-yl)pyrimidine-2,4-diamine]"
9,100 to 3000 nM,"Cc1nc2ccccc2n1-c1cc(N)nc(Nc2ccc(C(F)(F)F)c(F)c2)n1 [Cpd 13, N^2-[3-fluoro-4-(trifluoromethyl)phenyl]-6-(2-methyl-1H-benzimidazol-1-yl)pyrimidine-2,4-diamine]"
10,10 to 100 nM,"Cc1nc2ccccc2n1-c1cc(N)nc(Nc2ccc(OC(F)F)c(F)c2)n1 [Cpd 14, N^2-[4-(difluoromethoxy)-3-fluorophenyl]-6-(2-methyl-1H-benzimidazol-1-yl)pyrimidine-2,4-diamine]"
11,100 to 3000 nM,"Cc1nc2ccccc2n1-c1cc(NCCO)nc(Nc2ccc(C(F)(F)F)cc2)n1 [Cpd 15, 2-{[6-(2-methyl-1H-benzimidazol-1-yl)-2-{[4-(trifluoromethyl)phenyl]amino}pyrimidin-4-yl]amino}ethanol]"
12,100 to 3000 nM,"Cc1nc2ccccc2n1-c1cc(NCCO)nc(Nc2ccc(C(F)(F)F)c(F)c2)n1 [Cpd 16, 2-{[2-{[3-fluoro-4-(trifluoromethyl)phenyl]amino}-6-(2-methyl-1H-benzimidazol-1-yl)pyrimidin-4-yl]amino}ethanol]"
13,100 to 3000 nM,"Cc1nc2ccccc2n1-c1cc(NCCO)nc(Nc2ccc(OC(F)F)c(F)c2)n1 [Cpd 17, 2-{[2-{[4-(difluoromethoxy)-3-fluorophenyl]amino}-6-(2-methyl-1H-benzimidazol-1-yl)pyrimidin-4-yl]amino}ethanol]"
14,100 to 3000 nM,"Cc1nc2cc(F)c(F)cc2n1-c1cc(Cl)nc(Nc2ccc(C(F)(F)F)cc2)n1 [Cpd 18, 4-chloro-6-(5,6-difluoro-2-methyl-1H-benzimidazol-1-yl)-N-[4-(trifluoromethyl)phenyl]pyrimidin-2-amine]"
15,100 to 3000 nM,"Cc1nc2cc(F)c(F)cc2n1-c1cc(Cl)nc(Nc2ccc(C(F)(F)F)c(F)c2)n1 [Cpd 19, 4-chloro-6-(5,6-difluoro-2-methyl-1H-benzimidazol-1-yl)-N-[3-fluoro-4-(trifluoromethyl)phenyl]pyrimidin-2-amine]"
16,10 to 100 nM,"Cc1nc2cc(F)c(F)cc2n1-c1cc(N)nc(Nc2ccc(C(F)(F)F)cc2)n1 [Cpd 20, 6-(5,6-difluoro-2-methyl-1H-benzimidazol-1-yl)-N^2-[4-(trifluoromethyl)phenyl]pyrimidine-2,4-diamine]"
17,100 to 3000 nM,"Cc1nc2cc(F)c(F)cc2n1-c1cc(NCCO)nc(Nc2ccc(C(F)(F)F)cc2)n1 [Cpd 21, 2-{[6-(5,6-difluoro-2-methyl-1H-benzimidazol-1-yl)-2-{[4-(trifluoromethyl)phenyl]amino}pyrimidin-4-yl]amino}ethanol]"
18,10 to 100 nM,"Cc1nc2ccccc2n1-c1cc(NO)nc(Nc2ccc(C(F)(F)F)cc2)n1 [Cpd 22, N^4-hydroxy-6-(2-methyl-1H-benzimidazol-1-yl)-N^2-[4-(trifluoromethyl)phenyl]pyrimidine-2,4-diamine]"
19,10 to 100 nM,"CCc1nc2ccccc2n1-c1cc(N)nc(Nc2ccc(C(F)(F)F)cc2)n1 [Cpd 23, 6-(2-ethyl-1H-benzimidazol-1-yl)-N^2-[4-(trifluoromethyl)phenyl]pyrimidine-2,4-diamine]"
20,100 to 3000 nM,"Cc1nc2cc(F)c(F)cc2n1-c1cc(N)nc(Nc2ccc(C(F)(F)F)c(F)c2)n1 [Cpd 24, 6-(5,6-difluoro-2-methyl-1H-benzimidazol-1-yl)-N^2-[3-fluoro-4-(trifluoromethyl)phenyl]pyrimidine-2,4-diamine]"
21,100 to 3000 nM,"Nc1cc(-c2ccnc3ccccc23)nc(Nc2ccc(C(F)(F)F)cc2)n1 [Cpd 25, 6-(quinolin-4-yl)-N^2-[4-(trifluoromethyl)phenyl]pyrimidine-2,4-diamine]"
22,10 to 100 nM,"CCc1nc2ccc(F)cc2n1-c1cc(N)nc(Nc2ccc(C(F)(F)F)cc2)n1 [Cpd 26, 6-(2-ethyl-6-fluoro-1H-benzimidazol-1-yl)-N^2-[4-(trifluoromethyl)phenyl]pyrimidine-2,4-diamine]"
23,10 to 100 nM,"Nc1cc(-n2c(C3CC3)nc3ccc(F)cc32)nc(Nc2ccc(C(F)(F)F)cc2)n1 [Cpd 27, 6-(2-cyclopropyl-6-fluoro-1H-benzimidazol-1-yl)-N^2-[4-(trifluoromethyl)phenyl]pyrimidine-2,4-diamine]"
24,1 to 10 nM,"Nc1cc(-c2c(CO)nc3ccccn23)nc(Nc2ccc(C(F)(F)F)cc2)n1 [Cpd 28, [3-(6-amino-2-{[4-(trifluoromethyl)phenyl]amino}pyrimidin-4-yl)imidazo[1,2-a]pyridin-2-yl]methanol]"
25,10 to 100 nM,"Nc1cc(-c2c(CO)nc3ccc(F)cn23)nc(Nc2ccc(C(F)(F)F)cc2)n1 [Cpd 29, [3-(6-amino-2-{[4-(trifluoromethyl)phenyl]amino}pyrimidin-4-yl)-6-fluoroimidazo[1,2-a]pyridin-2-yl]methanol]"
26,100 to 3000 nM,"Cc1nc2ccccc2n1-c1cc(Cl)nc(Nc2ccc(OC(F)F)c(F)c2)n1 [Cpd 30, 4-chloro-N-[4-(difluoromethoxy)-3-fluorophenyl]-6-(2-methyl-1H-benzimidazol-1-yl)pyrimidin-2-amine]"
27,1 to 10 nM,"Cc1nc2ncc(Cl)cc2n1-c1cc(N)nc(Nc2ccc(C(F)(F)F)cc2)n1 [Cpd 31, 6-(6-chloro-2-methyl-1H-imidazo[4,5-b]pyridin-1-yl)-N^2-[4-(trifluoromethyl)phenyl]pyrimidine-2,4-diamine]"
28,10 to 100 nM,"CCc1nc2ncc(Cl)cc2n1-c1cc(N)nc(Nc2ccc(C(F)(F)F)cc2)n1 [Cpd 32, 6-(6-chloro-2-ethyl-1H-imidazo[4,5-b]pyridin-1-yl)-N^2-[4-(trifluoromethyl)phenyl]pyrimidine-2,4-diamine]"
29,10 to 100 nM,"Cc1nc2c(F)cc(F)cc2n1-c1cc(N)nc(Nc2ccc(C(F)(F)F)cc2)n1 [Cpd 34, 6-(4,6-difluoro-2-methyl-1H-benzimidazol-1-yl)-N^2-[4-(trifluoromethyl)phenyl]pyrimidine-2,4-diamine]"

# From patent US10370371B2, “Substituted pyrimidine Bmi-1 inhibitors” (PTC Therapeutics, Inc., priority 2013, dated 2019)
